Experimental data from patent US20260125375A1 (Pfizer Inc., priority 2022, published 2026).

What was measured:
CBL-B (residues 36-427) = biological target: T1, CBL-B (residues 36-427) (Homo sapiens, UniProt Q13191); test: Ligand Displacement Assay (LDA), HTRF competitive binding against BODIPY-labeled fluorescent tracer, CBL-B; conditions: geometric mean of the number of tests, read-out: CBL-B Ki (nM) GMean
T1 construct: Purified CBL-B (residues 36-427) and C-CBL (residues 46-435) proteins from baculovirus-infected insect cells; made in house; host or cells: baculovirus-infected insect cells
In short: (§1)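 Terbium-streptavidin donor on BirA-biotinylated, AviTagged protein from baculovirus-infected insect cells; BODIPY tracer as acceptor. Compound titrations were three-fold and duplicated, […] with 2% DMSO final.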

C-CBL (residues 46-435) = biological target: T2, C-CBL (residues 46-435) (Homo sapiens, UniProt P22681); test: Ligand Displacement Assay (LDA), HTRF competitive binding against BODIPY-labeled fluorescent tracer, C-CBL; conditions: geometric mean of the number of tests, read-out: C-CBL Ki (nM) GMean
T2 construct: Purified CBL-B (residues 36-427) and C-CBL (residues 46-435) proteins from baculovirus-infected insect cells; made in house; host or cells: baculovirus-infected insect cells
T2 sequence (P22681 46-435): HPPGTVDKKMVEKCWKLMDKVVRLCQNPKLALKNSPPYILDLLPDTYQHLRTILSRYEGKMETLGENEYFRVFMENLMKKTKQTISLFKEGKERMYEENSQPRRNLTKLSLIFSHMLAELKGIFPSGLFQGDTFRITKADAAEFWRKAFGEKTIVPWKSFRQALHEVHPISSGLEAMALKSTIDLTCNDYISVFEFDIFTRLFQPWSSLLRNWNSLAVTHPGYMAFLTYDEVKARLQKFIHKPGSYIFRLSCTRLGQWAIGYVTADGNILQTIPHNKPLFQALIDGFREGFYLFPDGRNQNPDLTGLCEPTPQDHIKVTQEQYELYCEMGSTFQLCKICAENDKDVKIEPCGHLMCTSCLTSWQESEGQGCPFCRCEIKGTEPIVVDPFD
In short: as §1

WT CBL-B (36-427) = biological target: T3, WT CBL-B (36-427) (Homo sapiens, UniProt Q13191); test: Surface Plasmon Resonance (SPR) assay, binding affinity and kinetics, CBL-B; conditions: SPR at 10° C., biotinylated WT CBL-B (36-427) on streptavidin chip; geometric mean; read-out: CBL-B SPR Kd (nM) GMean
T3 construct: N-terminal biotinylated WT CBL-B (36-427) and C-CBL (46-435) were captured on a streptavidin (SA) coated sensor chip
In short: (§2)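 SPR kinetics at 10° C, run either single-cycle (0.001–1 μM, 3-fold, 6 points, 120 s on, >5400 s off) or multi-cycle (10 points, 2-fold, top 10 or 100 μM, 90 s on). Proteins were N-biotinylated CBL-B (36-427) and C-CBL (46-435) on SA surfaces, in pH 7.2 HEPES, 2% DMSO.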

C-CBL (46-435) = biological target: T4, C-CBL (46-435) (Homo sapiens, UniProt P22681); test: Surface Plasmon Resonance (SPR) assay, binding affinity and kinetics, C-CBL; conditions: SPR at 10° C., biotinylated C-CBL (46-435) on streptavidin chip; geometric mean; read-out: C-CBL SPR Kd (nM) GMean
T4 construct: N-terminal biotinylated WT CBL-B (36-427) and C-CBL (46-435) were captured on a streptavidin (SA) coated sensor chip
T4 sequence (P22681 46-435): T2 sequence (P22681 46-435)
In short: as §2

Row | Structure (SMILES) | Ki (CBL-B (residues 36-427)) [nM] | Ki (C-CBL (residues 46-435)) [nM] | Kd (WT CBL-B (36-427)) [nM] | Kd (C-CBL (46-435)) [nM]
1 | C[C@H](c1nc(C(F)(F)F)cc2c(-c3cccc(C4(Cc5nncn5C)COC4)c3)n[nH]c12)N1CC(F)C1 (single isomer, unassigned) [Example D44] | 15.6 | 47.4 | 5.9 | 74
2 | CC(O)c1nc(C(F)(F)F)cc2c(-c3cccc(C4(Cc5nncn5C)COC4)c3)n[nH]c12 (single isomer, unassigned) [Example K10, (1ξ)-1-[3-(3-{3-[(4-methyl-4H-1,2,4-triazol-3-yl)methyl]oxetan-3-yl}phenyl)-5-(trifluoromethyl)-1H-pyrazolo[3,4-c]pyridin-7-yl]ethan-1-ol] | 45.1 | 219 | 23.5 | 291
3 | CN(C)Cc1nc(C(F)(F)F)cc2c(-c3cccc([C@H](c4nncn4C)C4CCC4)c3)n[nH]c12 [Example D82] | 32.5 | 258 | 8.7 | 213
4 | Cn1cnnc1[C@@H](c1cccc(-c2n[nH]c3c(CN[C@@H]4CC[C@@H](O)C4)nc(C(F)(F)F)cc23)c1)C1CCC1 [Example D35] | 12.9 | 100 | 4.4 | 152
5 | Cn1cnnc1CC1(c2cccc(-c3n[nH]c4c(CN5C[C@@H](F)[C@H](F)C5)nc(C(F)(F)F)cc34)c2)COC1 [Example C66, 7-{[(3R,4R)-3,4-difluoropyrrolidin-1-yl]methyl}-3-(3-{3-[(4-methyl-4H-1,2,4-triazol-3-yl)methyl]oxetan-3-yl}phenyl)-5-(trifluoromethyl)-1H-pyrazolo[3,4-c]pyridine] | 20 | 112 | 9.6 | 97
6 | Cn1cnnc1[C@@H](c1cccc(-c2n[nH]c3c(CNC4CCNC(=O)C4)nc(C(F)(F)F)cc23)c1)C1CCC1 (single isomer, unassigned) [Example C87] | 21.2 | 210 | 8.4 | 175
7 | C[C@@H]1CN([C@@H](C)c2nc(C(F)(F)F)cc3c(-c4cccc(C5(Cc6nncn6C)COC5)c4)n[nH]c23)CCO1 (single isomer, unassigned) [Example D49] | 17.8 | 104 | 5.9 | 82
8 | Cn1cnnc1CC1(c2cccc(-c3n[nH]c4c(CN5CCNCC5)nc(C(F)(F)F)cc34)c2)COC1 [Example C64, 3-(3-{3-[(4-methyl-4H-1,2,4-triazol-3-yl)methyl]oxetan-3-yl}phenyl)-7-[(piperazin-1-yl)methyl]-5-(trifluoromethyl)-1H-pyrazolo[3,4-c]pyridine] | 31.2 | 117 | 3 | 65.2
9 | C[C@H](N[C@H]1C[C@H](O)C1)c1nc(C(F)(F)F)cc2c(-c3cccc([C@H](c4nncn4C)C4CCC4)c3)n[nH]c12 (single isomer, unassigned) [Example C91] | 12.7 | 105 | 5.1 | 129
10 | C[C@@H](c1nc(C(F)(F)F)cc2c(-c3cccc(C4(Cc5nncn5C)COC4)c3)n[nH]c12)N1CCNCC1 (single isomer, unassigned) [Example D53] | 11.8 | 36.9 | 3.2 | 36.1
11 | Cn1cnnc1CC1(c2cccc(-c3n[nH]c4cnc(OC(F)(F)F)cc34)c2)COC1 [Example B9, 3-(3-{3-[(4-methyl-4H-1,2,4-triazol-3-yl)methyl]oxetan-3-yl}phenyl)-5-(trifluoromethoxy)-1H-pyrazolo[3,4-c]pyridine] | 74.5 | 238 | 32.5 | 244
12 | CC(=O)NCC(C)c1nc(C(F)(F)F)cc2c(-c3cccc([C@H](c4nncn4C)C4CCC4)c3)n[nH]c12 (single isomer, unassigned) [Example M5] | 52.5 | 527 | 14.2 | 741
13 | Cn1cnnc1[C@@H](c1cccc(-c2n[nH]c3c(CN4C[C@H](O)[C@@H](O)C4)nc(C(F)(F)F)cc23)c1)C1CCC1 [Example C76, (3S,4S)-1-{[3-{3-[(R)-cyclobutyl(4-methyl-4H-1,2,4-triazol-3-yl)methyl]phenyl}-5-(trifluoromethyl)-1H-pyrazolo[3,4-c]pyridin-7-yl]methyl}pyrrolidine-3,4-diol] | 3.3 | 41.4 | 2.5 | 52.1
14 | Cn1cnnc1[C@@H](c1cccc(-c2n[nH]c3c(CN4CCNC(=O)C4)nc(C(F)(F)F)cc23)c1)C1CCC1 [Example C112, 4-{[3-{3-[(R)-cyclobutyl(4-methyl-4H-1,2,4-triazol-3-yl)methyl]phenyl}-5-(trifluoromethyl)-1H-pyrazolo[3,4-c]pyridin-7-yl]methyl}piperazin-2-one] | 15.4 | 114 | 3 | 82.1
15 | Cn1cnnc1CC1(c2cccc(-c3n[nH]c4c(CN5CCC(F)(F)C5)nc(C(F)(F)F)cc34)c2)COC1 [Example C70, 7-[(3,3-difluoropyrrolidin-1-yl)methyl]-3-(3-{3-[(4-methyl-4H-1,2,4-triazol-3-yl)methyl]oxetan-3-yl}phenyl)-5-(trifluoromethyl)-1H-pyrazolo[3,4-c]pyridine] | 20.6 | 113 | 6 | 80
16 | Cn1cnnc1[C@@H](c1cccc(-c2n[nH]c3c(CN4CC(F)(F)C4)nc(C(F)(F)F)cc23)c1)C1CCC1 [Example C115, 3-{3-[(R)-cyclobutyl(4-methyl-4H-1,2,4-triazol-3-yl)methyl]phenyl}-7-[(3,3-difluoroazetidin-1-yl)methyl]-5-(trifluoromethyl)-1H-pyrazolo[3,4-c]pyridine] | 73.8 | 1020 | 9.2 | 195
17 | Cn1cnnc1[C@@H](c1cccc(-c2n[nH]c3cnc(Cl)cc23)c1)C1CCC1 [Example A3, 5-chloro-3-{3-[(R)-cyclobutyl(4-methyl-4H-1,2,4-triazol-3-yl)methyl]phenyl}-1H-pyrazolo[3,4-c]pyridine] | 31.1 | 362 | 12.9 | 301
18 | CC(NC1CC(F)(F)C1)c1nc(C(F)(F)F)cc2c(-c3cccc(C4(Cc5nncn5C)COC4)c3)n[nH]c12 (single isomer, unassigned) [Example C93, 3,3-difluoro-N-{(1ξ)-1-[3-(3-{3-[(4-methyl-4H-1,2,4-triazol-3-yl)methyl]oxetan-3-yl}phenyl)-5-(trifluoromethyl)-1H-pyrazolo[3,4-c]pyridin-7-yl]ethyl}cyclobutan-1-amine] | 3.6 | 15.9 | 2.3 | 21.7
19 | Cn1cnnc1CC1(c2cccc(-c3n[nH]c4c(CN5CCCC5)nc(C(F)(F)F)cc34)c2)COC1 [Example C62, 3-(3-{3-[(4-methyl-4H-1,2,4-triazol-3-yl)methyl]oxetan-3-yl}phenyl)-7-[(pyrrolidin-1-yl)methyl]-5-(trifluoromethyl)-1H-pyrazolo[3,4-c]pyridine] | 34.3 | 162 | 8.6 | 111
20 | Cn1cnnc1CC1(c2cccc(-c3n[nH]c4c(CN5CC[C@H](F)C5)nc(C(F)(F)F)cc34)c2)COC1 [Example C73, 7-{[(3S)-3-fluoropyrrolidin-1-yl]methyl}-3-(3-{3-[(4-methyl-4H-1,2,4-triazol-3-yl)methyl]oxetan-3-yl}phenyl)-5-(trifluoromethyl)-1H-pyrazolo[3,4-c]pyridine] | 19.3 | 111 | 9 | 94
21 | CC(C)NCc1nc(C(F)(F)F)cc2c(-c3cccc([C@H](c4nncn4C)C4CCC4)c3)n[nH]c12 [Example D80] | 23 | 181 | 9.5 | 306
22 | Cn1cnnc1CC1(c2cccc(-c3n[nH]c4c(CNC5CCCC5)nc(C(F)(F)F)cc34)c2)COC1 [Example C54, N-{[3-(3-{3-[(4-methyl-4H-1,2,4-triazol-3-yl)methyl]oxetan-3-yl}phenyl)-5-(trifluoromethyl)-1H-pyrazolo[3,4-c]pyridin-7-yl]methyl}cyclopentanamine] | 10.7 | 49.4 | 4.5 | 93.2
23 | Cn1cnnc1[C@@H](c1cccc(-c2n[nH]c3c(C4CCCCN4)nc(C(F)(F)F)cc23)c1)C1CCC1 (single isomer, unassigned) [Example L2] | 90.1 | 721 | 30 | 307
